# Legend:
# [1] = in vivo; assay type: in vivo; conditions: male dogs
# Experimental: Eighteen male and eighteen female beagle dogs were received from Ridglan Farms, Mt. Horeb, Wis. […] Each group consisted of four males and four females. All animals/sex/group were scheduled for the primary necropsy at the end of the 13-week treatment period.
# The animals were observed twice daily for mortality and moribundity. Clinical examinations were performed daily at the time of dosing and approximately 1-2 and approximately 3 hours following dose administration. Detailed physical examinations were performed weekly. Clinical pathology evaluations (hematology, serum chemistry and urinalysis) were performed prior to the initiation of dose administration (study week-1) and prior to the scheduled necropsy (study week 13). Individual body weights were recorded weekly, beginning approximately two weeks prior to test article administration (study week-2). Mean body weights and mean body weight changes were calculated for each corresponding interval. Final body weights (fasted) were recorded prior to the scheduled necropsy. […] Gross lesions were also examined from the 2.0 and 6.0 mg/kg/day groups.
# [2] = Toxicokinetic evaluation in rats; conditions: rat, in vivo; for AUC(0-t): Crl:CD(SD)IGS BR, po, 10 mg/kg/day, AUC0-24 h
# Experimental: For toxicokinetic evaluation, all animals were observed twice daily for mortality and moribundity. Blood samples were collected from three animals/sex/group at 0 (pre-dose), 1, 2, 4, 8 and 24 hours after dose administration on study days 0 and 87. All toxicokinetic animals were euthanized and discarded following the final blood collection (study day 88).
smiles,measurement,setting,value
"Cl.Clc1ccc([C@@]23CNC[C@@H]2C3)cc1Cl (single isomer, unassigned) [(+)-1-(3,4-dichlorophenyl)-3-azabicyclo[3.1.0]hexane hydrochloride]","mean food consumption, lower than control","[1]; 20 mg/kg/day, first week of dose administration",33%
same,"food consumption, less than control values","[1]; 20 mg/kg/day, generally, throughout the study",at least 10%
same,"mean body weight, lower than control","[1]; 20 mg/kg/day, study week 13",13%
same,"mean food consumption, lower than control","[1]; 20 mg/kg/day, study weeks 6 to 13 except week 8 to 9, not statistically significant",at least 10%
same,"weekly food consumption, MEAN","[1]; 2.0 MG/KG/DAY group, WEEK −1 TO 0 (before dosing)",339. C/ANIMAL/DAY
same,"weekly food consumption, MEAN","[1]; 2.0 MG/KG/DAY, WEEK 0 TO 1",320. C/ANIMAL/DAY
same,"weekly food consumption, MEAN","[1]; 2.0 MG/KG/DAY, WEEK 1 TO 2",354. C/ANIMAL/DAY
same,"weekly food consumption, MEAN","[1]; 2.0 MG/KG/DAY, WEEK 2 TO 3",373. C/ANIMAL/DAY
same,"weekly food consumption, MEAN","[1]; 2.0 MG/KG/DAY, WEEK 3 TO 4",366. C/ANIMAL/DAY
same,"weekly food consumption, MEAN","[1]; 2.0 MG/KG/DAY, WEEK 4 TO 5",369. C/ANIMAL/DAY
same,"weekly food consumption, MEAN","[1]; 2.0 MG/KG/DAY, WEEK 5 TO 6",360. C/ANIMAL/DAY
same,"weekly food consumption, MEAN","[1]; 2.0 MG/KG/DAY, WEEK 6 TO 7",393. C/ANIMAL/DAY
same,"weekly food consumption, MEAN","[1]; 2.0 MG/KG/DAY, WEEK 7 TO 8",360. C/ANIMAL/DAY
same,"weekly food consumption, MEAN","[1]; 2.0 MG/KG/DAY, WEEK 8 TO 9",388. C/ANIMAL/DAY
same,"weekly food consumption, MEAN","[1]; 2.0 MG/KG/DAY, WEEK 9 TO 10",375. C/ANIMAL/DAY
same,"weekly food consumption, MEAN","[1]; 2.0 MG/KG/DAY, WEEK 10 TO 11",389. C/ANIMAL/DAY
same,"weekly food consumption, MEAN","[1]; 2.0 MG/KG/DAY, WEEK 12 TO 13",355. C/ANIMAL/DAY
same,"weekly food consumption, MEAN","[1]; 6.0 MG/KG/DAY group, WEEK −1 TO 0 (before dosing)",331. C/ANIMAL/DAY
same,"weekly food consumption, MEAN","[1]; 6.0 MG/KG/DAY, WEEK 0 TO 1",351. C/ANIMAL/DAY
same,"weekly food consumption, MEAN","[1]; 6.0 MG/KG/DAY, WEEK 1 TO 2",370. C/ANIMAL/DAY
same,"weekly food consumption, MEAN","[1]; 6.0 MG/KG/DAY, WEEK 3 TO 4",380. C/ANIMAL/DAY
same,"weekly food consumption, MEAN","[1]; 6.0 MG/KG/DAY, WEEK 4 TO 5",350. C/ANIMAL/DAY
same,"weekly food consumption, MEAN","[1]; 6.0 MG/KG/DAY, WEEK 5 TO 6",374. C/ANIMAL/DAY
same,"weekly food consumption, MEAN","[1]; 6.0 MG/KG/DAY, WEEK 6 TO 7",381. C/ANIMAL/DAY
same,"weekly food consumption, MEAN","[1]; 6.0 MG/KG/DAY, WEEK 7 TO 8",356. C/ANIMAL/DAY
same,"weekly food consumption, MEAN","[1]; 6.0 MG/KG/DAY, WEEK 8 TO 9",368. C/ANIMAL/DAY
same,"weekly food consumption, MEAN","[1]; 6.0 MG/KG/DAY, WEEK 9 TO 10",360. C/ANIMAL/DAY
same,"weekly food consumption, MEAN","[1]; 6.0 MG/KG/DAY, WEEK 10 TO 11",367. C/ANIMAL/DAY
same,"weekly food consumption, MEAN","[1]; 6.0 MG/KG/DAY, WEEK 11 TO 12",357. C/ANIMAL/DAY
same,"weekly food consumption, MEAN","[1]; 6.0 MG/KG/DAY, WEEK 12 TO 13",331. C/ANIMAL/DAY
same,"weekly food consumption, MEAN","[1]; 20 MG/KG/DAY group, WEEK −1 TO 0 (before dosing)",337. C/ANIMAL/DAY
same,"weekly food consumption, MEAN","[1]; 20 MG/KG/DAY, WEEK 0 TO 1",228.* C/ANIMAL/DAY
same,"weekly food consumption, MEAN","[1]; 20 MG/KG/DAY, WEEK 1 TO 2",319. C/ANIMAL/DAY
same,"weekly food consumption, MEAN","[1]; 20 MG/KG/DAY, WEEK 2 TO 3",326. C/ANIMAL/DAY
same,"weekly food consumption, MEAN","[1]; 20 MG/KG/DAY, WEEK 3 TO 4",357. C/ANIMAL/DAY
same,"weekly food consumption, MEAN","[1]; 20 MG/KG/DAY, WEEK 4 TO 5",356. C/ANIMAL/DAY
same,"weekly food consumption, MEAN","[1]; 20 MG/KG/DAY, WEEK 5 TO 6",331. C/ANIMAL/DAY
same,"weekly food consumption, MEAN","[1]; 20 MG/KG/DAY, WEEK 6 TO 7",328. C/ANIMAL/DAY
same,"weekly food consumption, MEAN","[1]; 20 MG/KG/DAY, WEEK 7 TO 8",325. C/ANIMAL/DAY
same,"weekly food consumption, MEAN","[1]; 20 MG/KG/DAY, WEEK 8 TO 9",375. C/ANIMAL/DAY
same,"weekly food consumption, MEAN","[1]; 20 MG/KG/DAY, WEEK 9 TO 10",322. C/ANIMAL/DAY
same,"weekly food consumption, MEAN","[1]; 20 MG/KG/DAY, WEEK 10 TO 11",350. C/ANIMAL/DAY
same,"weekly food consumption, MEAN","[1]; 20 MG/KG/DAY, WEEK 11 TO 12",305. C/ANIMAL/DAY
same,"weekly food consumption, MEAN","[1]; 20 MG/KG/DAY, WEEK 12 TO 13",249. C/ANIMAL/DAY
same,AUC(0-t),[2]; female,14400 ng·h/mL
same,AUC(0-t),[2]; male,8130 ng·h/mL
same,exposure versus dose,[2],increased dose-dependently

# From US20070225351A1, “Methods and compositions for controlling body weight and appetite” (priority 2002, published 2007)
